Test results from patent publication US9556110B2, “Aminoalcohol lipidoids and uses thereof” (Massachusetts Institute of Technology, priority 2008, dated 2017).

Test system: Factor VII
Assay: In vivo Factor VII knockdown after injection of anti-Factor VII siRNA lipidoid formulations
Set-up: species or system C57BL/6 mice
Conditions: mice, 0.01 mg/kg siRNA dosing
Experimental: C57BL/6 mice (Charles River Labs) received either saline or siRNA in lipidoid formulations via tail vein injection at a volume of 0.01 ml/g. […] At 48 hours after administration, animals were anesthetized by isofluorane inhalation and blood was collected into serum separator tubes by retroorbital bleed. Serum levels of Factor VII protein were determined in samples using a chromogenic assay (Biophen FVII, Aniara Corporation) according to the manufacturer's protocols. A standard curve was generated using serum collected from saline-treated animals. Exemplary results are depicted in FIG. 7.
To test siRNA delivery efficacy in vivo, a mouse model for liver delivery was used. […] Once produced by hepatocytes, Factor VII is released into the bloodstream, and a baseline level of expression can be determined by simple blood draw and quantification of protein levels by colorimetric assay. By delivering anti-Factor VII siRNA to hepatocytes, knockdown of this model protein can be achieved and a percentage of silencing can be determined by comparison to an untreated control. […]
Following the initial in vivo screening experiments, two compounds were used to conduct a dose response. […] In addition to Factor VII measurement, the change in mouse body weight is recorded and a loss in weight is generally considered formulation induced toxicity (See FIG. 13b and FIG. 14b). […]

Row | Structure (SMILES) | difference of Factor VII reduction between racemic lipidoid and R or S forms | reduction of systemic Factor VII (preliminary)
1 | CCCCCCCCCCC(O)CN(CCN1CCN(CCN(CC(O)CCCCCCCCCC)CC(O)CCCCCCCCCC)CC1)CCN(CC(O)CCCCCCCCCC)CC(O)CCCCCCCCCC (racemic) [C12-200] | insignificant | 
2 | CCCCCCCCCC[C@H](O)CN(CCN1CCN(CCN(C[C@@H](O)CCCCCCCCCC)C[C@@H](O)CCCCCCCCCC)CC1)CCN(C[C@@H](O)CCCCCCCCCC)C[C@@H](O)CCCCCCCCCC [(S)—C12-200] |  | approximately 50%
